# Measurements taken from ChEMBL document CHEMBL1201862, “PubChem BioAssay data set” (2004).
#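 1) Cells in 96-well plates. 2) Compound, 48 h, 5 concentrations. 3) Linear interpolation between surrounding doses. 4) Unreached endpoint = highest concentration. GI50 marks 50% less growth.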 Activity calls are given as the source filed them. Rule as the data show it: active = GI50 up to about 1.1 µM and inactive = higher.
# Key:
# Assay in all cases: inhibition of tumour cell growth, NCI panel, 48 h
# HT-29 = test system: HT-29
# IGROV-1 = test system: IGROV-1
# HOP-62 = test system: HOP-62
# UACC-62 = test system: UACC-62
# Malme-3M = test system: Malme-3M
# ACHN = test system: ACHN
# RPMI-8226 = test system: RPMI-8226
# KM12 = test system: KM12
# MDA-N = test system: MDA-N
# K562 = test system: K562
# HL-60 = test system: HL-60
# SK-MEL-28 = test system: SK-MEL-28
# OVCAR-8 = test system: OVCAR-8
# CAKI-1 = test system: CAKI-1
# OVCAR-3 = test system: OVCAR-3
# SK-MEL-5 = test system: SK-MEL-5
# SK-OV-3 = test system: SK-OV-3
# HOP-92 = test system: HOP-92
# SR = test system: SR
# HCT-15 = test system: HCT-15
# UACC-257 = test system: UACC-257
# MDA-MB-231 = test system: MDA-MB-231
# NCI/ADR-RES = test system: NCI/ADR-RES
# A498 = test system: A498
# SW-620 = test system: SW-620
# DU-145 = test system: DU-145
# BT-549 = test system: BT-549
# T47D = test system: T47D
# NCI-H23 = test system: NCI-H23
# PC-3 = test system: PC-3
# TK-10 = test system: TK-10
# EKVX = test system: EKVX
# COLO 205 = test system: COLO 205
# MDA-MB-435 = test system: MDA-MB-435
# OVCAR-4 = test system: OVCAR-4
# MCF7 = test system: MCF7
# SK-MEL-2 = test system: SK-MEL-2
# HCT-116 = test system: HCT-116
# NCI-H226 = test system: NCI-H226
# A549 = test system: A549
# SNB-19 = test system: SNB-19
# Hs-578T = test system: Hs-578T
# MOLT-4 = test system: MOLT-4
# SF-539 = test system: SF-539
# OVCAR-5 = test system: OVCAR-5
# UO-31 = test system: UO-31
# SNB-75 = test system: SNB-75
# U-251 = test system: U-251
# LOX IMVI = test system: LOX IMVI
# SN12C = test system: SN12C
# RXF 393 = test system: RXF 393
# NCI-H460 = test system: NCI-H460
# SF-295 = test system: SF-295
# M14 = test system: M14
# CCRF-CEM = test system: CCRF-CEM
# NCI-H522 = test system: NCI-H522
# 786-0 = test system: 786-0
# SF-268 = test system: SF-268
smiles,measurement,setting,value
CN1CCCN(C)C1c1cc([N+](=O)[O-])ccc1O,GI50,HT-29,33.8 µM (inactive)
same,GI50,IGROV-1,26.3 µM (inactive)
same,GI50,HOP-62,40.7 µM (inactive)
same,GI50,UACC-62,16.6 µM (inactive)
same,GI50,Malme-3M,23.5 µM (inactive)
same,GI50,ACHN,20.9 µM (inactive)
same,GI50,RPMI-8226,31 µM (inactive)
same,GI50,KM12,36.6 µM (inactive)
same,GI50,MDA-N,40.7 µM (inactive)
same,GI50,K562,39 µM (inactive)
same,GI50,HL-60,21.5 µM (inactive)
same,GI50,SK-MEL-28,27.9 µM (inactive)
same,GI50,OVCAR-8,35.6 µM (inactive)
same,GI50,CAKI-1,> 100 µM (inactive)
same,GI50,OVCAR-3,41.8 µM (inactive)
same,GI50,SK-MEL-5,19.7 µM (inactive)
same,GI50,SK-OV-3,34.1 µM (inactive)
same,GI50,HOP-92,20.2 µM (inactive)
same,GI50,SR,21.6 µM (inactive)
same,GI50,HCT-15,43.6 µM
same,GI50,UACC-257,19 µM (inactive)
same,GI50,MDA-MB-231,24.9 µM (inactive)
same,GI50,NCI/ADR-RES,35.6 µM (inactive)
same,GI50,A498,> 100 µM (inactive)
same,GI50,SW-620,70.6 µM (inactive)
same,GI50,DU-145,36.9 µM (inactive)
same,GI50,BT-549,39.5 µM (inactive)
same,GI50,T47D,47.6 µM (inactive)
same,GI50,NCI-H23,89.1 µM (inactive)
same,GI50,PC-3,23.6 µM (inactive)
same,GI50,TK-10,56.1 µM (inactive)
same,GI50,EKVX,38.6 µM (inactive)
same,GI50,COLO 205,56.1 µM (inactive)
same,GI50,MDA-MB-435,31.2 µM (inactive)
same,GI50,OVCAR-4,32 µM (inactive)
same,GI50,MCF7,19.8 µM (inactive)
same,GI50,SK-MEL-2,31 µM (inactive)
same,GI50,HCT-116,32.6 µM (inactive)
same,GI50,NCI-H226,34.1 µM (inactive)
same,GI50,A549,> 100 µM (inactive)
same,GI50,SNB-19,30.8 µM (inactive)
same,GI50,Hs-578T,26.1 µM (inactive)
same,GI50,MOLT-4,22.1 µM (inactive)
same,GI50,SF-539,25.2 µM (inactive)
same,GI50,OVCAR-5,> 100 µM (inactive)
same,GI50,UO-31,0.436 µM (active)
same,GI50,SNB-75,31.1 µM (inactive)
same,GI50,U-251,26.5 µM (inactive)
same,GI50,LOX IMVI,19.4 µM (inactive)
same,GI50,SN12C,31.6 µM (inactive)
same,GI50,RXF 393,41.4 µM (inactive)
same,GI50,NCI-H460,30.1 µM (inactive)
same,GI50,SF-295,37.3 µM (inactive)
same,GI50,M14,19.1 µM (inactive)
same,GI50,CCRF-CEM,22 µM (inactive)
same,GI50,NCI-H522,33.9 µM (inactive)
same,GI50,786-0,33 µM (inactive)
same,GI50,SF-268,34.2 µM (inactive)
